Data reported in the OligoGym collection.
“And” between values parts separate entries of the source, which are not always exact repeats. Identical values can stand only once. After the bases stand the sugars from the 5' end (letter, count) and the backbone: PS all phosphorothioate, else s phosphorothioate and o phosphodiester by linkage. Methylation of C is not given here. e = 2'-O-(2-methoxyethyl) (MOE); d = 2'-deoxy (DNA)

Target: DGAT2
Conditions: ASO

Sequence	target mRNA inhibition (HepG2, 2.5 µM)	target mRNA inhibition (HepG2, 10 µM)	target mRNA inhibition (HepG2, 0.12 µM)	target mRNA inhibition (HepG2, 20 µM) [%]
TGCAATGTTGCCATCATACT (sugars e5 d10 e5, PS)	65% and 49%	91% and 83%		
TTTGGATAGTCGATTTACCA (sugars e5 d10 e5, PS)			41%	
CATAGGCCAGGAGGAAGAGT (sugars e5 d10 e5, PS)			35%	
TCTTGCCAGGCATGGAGCTC (sugars e5 d10 e5, PS)			47%	
AGCATTGCCACTCCCATTCT (sugars e3 d14 e3, PS)			67%	
GGCATGCTTCCTCCCAC (sugars e3 d10 e4, PS)	56%	56%		
GCAGGGTTACCCAGCCACTG (sugars e5 d10 e5, PS)	85% and 67%	75% and 88%		
GCCACTCCCAGTACAAGGAA (sugars e5 d10 e5, PS)			0%	
GGATAGTCGATTTACCAGAA (sugars e5 d10 e5, PS)	69%	85%		
TAGCATTGCCACTCCCATTC (sugars e2 d13 e5, PS)			60%	
GCGATTCACTGAGGACCTCA (sugars e5 d10 e5, PS)	74%	86%		
CAGGTCTATGCTGCAGTCAT (sugars e5 d10 e5, PS)	53% and 45%	89% and 82%		
ATGGAGCTCAGAGACTCAGC (sugars e3 d14 e3, PS)			71%	
AGGAGTTCTCGAATATCCCT (sugars e5 d10 e5, PS)	55% and 50%	87%		
ATATAGTTCCTGGTGGTCAG (sugars e5 d10 e5, PS)			53%	
ATACCTCCAGACATCAGGTA (sugars e5 d10 e5, PS)			50%	
GCTTCACCAGGGCCTCCATG (sugars e5 d10 e5, PS)	34%	57%	31%	80
CCACTGTTGCTGAGCTCATG (sugars e5 d10 e5, PS)	68%	88%		
CACTCTGTGATGCTCTGGAG (sugars e5 d10 e5, PS)	60%	84%		
GGCATGGAGCTCAGAGACTC (sugars e3 d14 e3, PS)			74%	
GCACCTGTTACTACATGTCT (sugars e5 d10 e5, PS)	87% and 78%	92% and 84%		
ATCCAAAGATATAGTTCCTG (sugars e5 d10 e5, PS)			39%	

Sequence	target mRNA inhibition (HepG2, 2.5 µM)	target mRNA inhibition (HepG2, 10 µM)	target mRNA inhibition (HepG2, 0.12 µM)	target mRNA inhibition (HepG2, 20 µM) [%]
ACAGCTGTGATGACTTCCCA (sugars e5 d10 e5, PS)	88%	77%		
TCACATGCCTGAGGGCAGCA (sugars e5 d10 e5, PS)	66%	86%		
CATGGAGCTCAGAGACTCAG (sugars e5 d10 e5, PS)			65%	
ACAGGACCCACTGGAGCACT (sugars e3 d14 e3, PS)			61%	
CTGCTTCTTGGGCATCTGCT (sugars e5 d10 e5, PS)	76% and 73%	88% and 80%		
GATAGCATTGCCACTCCCAT (sugars e5 d10 e5, PS)			66%	
GGGACTCAGTGTCCTCCTTA (sugars e5 d10 e5, PS)	69%	78%		
AGGTAGAGTTCTATTGCTTC (sugars e5 d10 e5, PS)	81%	88% and 92%		
ACCAACTCTCAGCTACTCCC (sugars e5 d10 e5, PS)	95%	85%		
TGGCTCAGTTCACCTCCAGG (sugars e5 d10 e5, PS)	53%	86%		
TAGAGGTTTACTGCATAGCT (sugars e5 d10 e5, PS)	84% and 72%	85% and 92%		
TGCCACTCCCATTCTTTGAA (sugars e5 d10 e5, PS)	0%	62%		
AGTCAAACCTAGGTTCAGAC (sugars e5 d10 e5, PS)	81%	55%		
TACCTGCTATGCTGAGAGCA (sugars e5 d10 e5, PS)	65%	80%		
GACAATGAGTAAGGGTATTC (sugars e5 d10 e5, PS)	48%	83%		
CATTGCTCAGATCACTCTGC (sugars e5 d10 e5, PS)	88%	74%		
GCAATGCCAATGCCTAGGTC (sugars e5 d10 e5, PS)	87% and 89%	82% and 91%		
GACAGGACCCACTGGAGCAC (sugars e5 d10 e5, PS)			44% and 69%	
CTTTTAAATAACCCACAGAC (sugars e5 d10 e5, PS)			0%	
AAAATCCATGTCAGAGAGGC (sugars e5 d10 e5, PS)	64%	90%		
GCAGTCTGCCTGATTCCCTT (sugars e5 d10 e5, PS)	60%	93%		
TAACCACAGCGATAATCACA (sugars e5 d10 e5, PS)	60%	93%		

Sequence	target mRNA inhibition (HepG2, 2.5 µM)	target mRNA inhibition (HepG2, 10 µM)	target mRNA inhibition (HepG2, 0.12 µM)	target mRNA inhibition (HepG2, 20 µM) [%]
GGCACAGAAAAGTGAGGCTT (sugars e5 d10 e5, PS)			32%	
GCGCCACACAGCCCAGTTTC (sugars e5 d10 e5, PS)			31%	
TTGGAGTAGGGCACCAGCCC (sugars e5 d10 e5, PS)			16%	
GCACTTGATCTGGGACCCAA (sugars e5 d10 e5, PS)	69% and 73%	95% and 92%		
ATCAGCTATAGAATCAGACA (sugars e5 d10 e5, PS)	16%	75%		
GTTCTTCCAACCAGTGTTTG (sugars e5 d10 e5, PS)	47%	81%		
AAACTTAGGCATGCTTCCTC (sugars e5 d10 e5, PS)	84%	56%		
GTACAAGTTTCTCCACCTAT (sugars e5 d10 e5, PS)	68% and 88%	79% and 87%		
GATGCTGGATCCAGTGCCTA (sugars e5 d10 e5, PS)			53%	
TGTTATCCGAGTTGAATTCT (sugars e5 d10 e5, PS)			45%	
AGCCTGGACAAGTCCTGCCC (sugars e3 d14 e3, PS)	35% and 53%	84%	82%	59
CAGGACTTGGTACCTGATTC (sugars e5 d10 e5, PS)			35%	
CCAAGTAAGCCTCGGTGTCC (sugars e5 d10 e5, PS)			32%	
TTGCCACTCCCATTCTTTGA (sugars e5 d10 e5, PS)			39% and 57%	
TAAGGGTATTCTGCTCATAA (sugars e5 d10 e5, PS)	63%	93%		
CAGGGCCTCCATGTACATGG (sugars e5 d10 e5, PS)			37%	
TGTGTGACCTTGGGCAAGTT (sugars e5 d10 e5, PS)	61% and 57%	78% and 88%		
CTCAGTCACTGACTCACAAC (sugars e5 d10 e5, PS)	54%	88%		
TTCATCTTTCCAGATCCGGA (sugars e5 d10 e5, PS)	71%	92%		
CCTAAAGGTGAAGACTGGCT (sugars e5 d10 e5, PS)	77% and 79%	93% and 94%		
AGGAGTTTGTGTTTCCCATT (sugars e5 d10 e5, PS)			39%	
CAGGGTCTGCCACTCTCTAC (sugars e5 d10 e5, PS)	56%	85%		

Sequence	target mRNA inhibition (HepG2, 2.5 µM)	target mRNA inhibition (HepG2, 10 µM)	target mRNA inhibition (HepG2, 0.12 µM)	target mRNA inhibition (HepG2, 20 µM) [%]
ATGGAGCTCAGAGACTCAGC (sugars e5 d10 e5, PS)			78%	
CCTTTGAAATCCAATGCACC (sugars e5 d10 e5, PS)	62%	92%		
GTGCAGAATATGTACATGAG (sugars e5 d10 e5, PS)			43%	
CAGCAGGTTGTGTGTCTTCA (sugars e3 d14 e3, PS)			47%	
TCCACCTAGCTCATGGTGGC (sugars e5 d10 e5, PS)			21%	
GGTGCTCTCATTTCTTATCT (sugars e5 d10 e5, PS)	56% and 59%	82% and 92%		
GGGTTCTTGTCCTGGTCCCA (sugars e5 d10 e5, PS)	79% and 66%	90%		
GTAAGCCTCGGTGTCCT (sugars e3 d10 e4, PS)	62%	79%		
CTCAGAGACTCAGCCGCACC (sugars e3 d14 e3, PS)			70%	
ACAATGGGAATGGTATCGCA (sugars e5 d10 e5, PS)	59%	92%		
CAGGCATGGAGCTCAGAGAC (sugars e3 d14 e3, PS)			76%	
CAGAAGAGCAAAGGCTTGCT (sugars e5 d10 e5, PS)	50%	94%		
CACCTGTTACTACATGTCTA (sugars e5 d10 e5, PS)	68%	93%		
TGGAGCTCAGAGACTCAGCC (sugars e2 d16 e2, PS)			37%	
TTACTCCACCTAGCTCATGG (sugars e5 d10 e5, PS)			6%	
CCTCGATGTTACATTAAGGG (sugars e5 d10 e5, PS)	82% and 88%	86% and 90%		
TCTTTGCTTGCCAGGTGAGC (sugars e5 d10 e5, PS)	67%	71%		
TTCGGACCCACTGTGACCTC (sugars e2 d13 e5, PS)			71%	
GGACCCACTGGAGCACTGAG (sugars e5 d10 e5, PS)	14%	47%	84%	73
TAAGGAAAACTTAGGCATGC (sugars e5 d10 e5, PS)	75%	69%		
GGAGTAGGGCACCAGCCCCC (sugars e5 d10 e5, PS)			17%	
